Molecules are shown by their SMILES. Activity calls are given as the source filed them. The rule behind the calls is not given here.

In this data set the test system is rodent carcinogenicity bioassays, tumor incidence. Briefly: CCRIS carcinogenicity studies. Summed up:
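Archive of carcinogenicity, mutagenicity, tumor promotion and tumor inhibition results drawn from journals, NCI reports and other sources, expert-reviewed; covers 1985-2011 and is no longer updated.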

As for `c1ccc2ncccc2c1`, the carcinogen call is “active; positive” (Species: MOUSE, Route: ORAL, Tumor Site: Type of Lesion: LIVER); “inactive; negative” (Species: MOUSE, Strain/Sex: CD-1/FEMALE, Route: INTRAPERITONEAL, Dose: 0, 0.25, 0.5, 1.0 UMOL IN DMSO TO NEWBORN MICE ON DAYS 1, 8 AND 15 OF LIFE RESPECTIVELY (TOTAL DOSE: 1.75 UMOL) (STUDY D, Dose: 0, 0.25, 0.5, 1.0 UMOL IN DMSO TO NEWBORN MICE ON DAYS 1, 8 AND 15 OF LIFE RESPECTIVELY (TOTAL DOSE: 1.75 UMOL) (STUDY D); “inactive; negative” (Species: MOUSE, Strain/Sex: CD-1/FEMALE, Route: INTRAPERITONEAL, Dose: 0, 1.75 UMOL/MOUSE (TOTAL DOSE) ADMINISTERED DURING DAYS 1, 8, AND 15 OF LIFE (STUDY DURATION: 52 WK)); “active; positive” (Species: MOUSE, Strain/Sex: CD-1/MALE, Route: INTRAPERITONEAL, Dose: 0, 0.25, 0.5, 1.0 UMOL IN DMSO TO NEWBORN MICE ON DAY 1,8 AND 15 OF LIFE RESPECTIVELY (TOTAL DOSE: 1,75 UMOL) (STUDY DUR, Dose: 0, 0.25, 0.5, 1.0 UMOL IN DMSO TO NEWBORN MICE ON DAY 1,8 AND 15 OF LIFE RESPECTIVELY (TOTAL DOSE: 1,75 UMOL) (STUDY DUR, Tumor Site: Type of Lesion: LIVER: HEPATOMA, ADENOMA); “active; positive” (Species: MOUSE, Strain/Sex: CD-1/MALE, Route: INTRAPERITONEAL, Dose: 0, 1.75 UMOL/MOUSE (TOTAL DOSE) ADMINISTERED DURING DAYS 1, 8, AND 15 OF LIFE (STUDY DURATION: 52 WK), Tumor Site: Type of Lesion: LIVER: ADENOMA OR CARCINOMA); “active; positive” (Species: RAT, Route: ORAL, Tumor Site: Type of Lesion: LIVER). Moreover, the carcinogen call (Species: RAT, Strain/Sex: SPRAGUE-DAWLEY/FEMALE, Route: SUBCUTANEOUS, Dose: 0, 200 UMOL/KG IN DMSO INTO SUPRASCAPULAR AREA ON DAY 1 OF LIFE FOLLOWED BY 0, 100 UMOL 1/WK AT WK 2-7 THEN 0, 200 UMOL/, Dose: 0, 200 UMOL/KG IN DMSO INTO SUPRASCAPULAR AREA ON DAY 1 OF LIFE FOLLOWED BY 0, 100 UMOL 1/WK AT WK 2-7 THEN 0, 200 UMOL/) is “inactive; negative”; the carcinogen call (Species: RAT, Strain/Sex: SPRAGUE-DAWLEY/MALE, Route: SUBCUTANEOUS, Dose: 0, 200 UMOL/KG IN DMSO INTO SUPRASCAPULAR AREA ON DAY 1 OF LIFE FOLLOWED BY 0, 100 UMOL 1/WK AT WK 2-7 THEN 0, 200 UMOL/, Dose: 0, 200 UMOL/KG IN DMSO INTO SUPRASCAPULAR AREA ON DAY 1 OF LIFE FOLLOWED BY 0, 100 UMOL 1/WK AT WK 2-7 THEN 0, 200 UMOL/) was “inactive; negative”; the carcinogen call (Species: RAT, Strain/Sex: WISTAR/MALE, Route: ORAL, Dose: 0, 0.25% IN DIET FOR 4 WK (STUDY DURATION: 20 WK)) is “inactive; negative”; the carcinogen call (Species: RAT, Strain/Sex: WISTAR/MALE, Route: ORAL, Dose: 0, 0.25% IN DIET FOR 8 WK (STUDY DURATION: 20 WK)) was “inactive; negative”; the carcinogen call (Species: RAT, Strain/Sex: WISTAR/MALE, Route: ORAL, Dose: 0, 0.25% IN DIET FOR 12 WK (STUDY DURATION: 20 WK), Tumor Site: Type of Lesion: LIVER: HEMANGIOENDOTHELIOMA) was “active; positive”; the carcinogen call (Species: RAT, Strain/Sex: WISTAR/MALE, Route: ORAL, Dose: 0, 0.25% IN DIET FOR 16 WK (STUDY DURATION: 20 WK), Tumor Site: Type of Lesion: LIVER: HEMANGIOENDOTHELIOMA) was “active; positive”. Under “Species: RAT, Strain/Sex: WISTAR/MALE, Route: ORAL, Dose: 0, 0.25% IN DIET FOR 20 WK (STUDY DURATION: 20 WK), Tumor Site: Type of Lesion: LIVER: HEMANGIOENDOTHELIOMA”, the carcinogen call was “active; positive”.

As for `O=P(O)(O)CCCl`, the carcinogen call is “inactive; negative” (Species: Mouse, Strain/Sex: CD-1 albino/Female (20 or 50/Group), Route: Oral, Dose: 0, 100, 1000, 10,000 ppm of 70.6-72.1% ethephon for 52 (20/Group) wks and 78 (50/Group) wks, Dose: 0, 100, 1000, 10,000 ppm of 70.6-72.1% ethephon for 52 (20/Group) wks and 78 (50/Group) wks); “inactive; negative” (Species: Mouse, Strain/Sex: CD-1 albino/Male (20 or 50/Group), Route: Oral, Dose: 0, 100, 1000, 10,000 ppm of 70.6-72.1% ethephon for 52 (20/Group) wks and 78 (50/Group) wks, Dose: 0, 100, 1000, 10,000 ppm of 70.6-72.1% ethephon for 52 (20/Group) wks and 78 (50/Group) wks); “inactive; negative” (Species: Rat, Strain/Sex: Sprague-Dawley CD/Female (30 or 50/Group), Route: Oral, Dose: 0, 300, 3000, 10,000, 30,000 ppm of 70.6-72.1% ethephon for 104 wks, study duration 104 wks, Dose: 0, 300, 3000, 10,000, 30,000 ppm of 70.6-72.1% ethephon for 104 wks, study duration 104 wks); “inactive; negative” (Species: Rat, Strain/Sex: Sprague-Dawley CD/Male (30 or 50/Group), Route: Oral, Dose: 0, 300, 3000, 10,000, 30,000 ppm of 70.6-72.1% ethephon for 97 wks, study duration 97 wks, Dose: 0, 300, 3000, 10,000, 30,000 ppm of 70.6-72.1% ethephon for 97 wks, study duration 97 wks).

Regarding `c1cc2ccc3cc4cccc5ccc6cc(c1)c2c3c6c54`, the carcinogen call by setting is: (Species: MOUSE, Route: DERMAL, Tumor Site: Type of Lesion: INTEGUMENTARY SYSTEM (SKIN)) “active; positive”; (Species: RAT, Strain/Sex: OSBORNE-MENDEL/FEMALE, Route: LUNG IMPLANT, Dose: 0, 0.16, 0.83 MG IN BEESWAX/TRIOCTANOIN (STUDY DURATION: LIFETIME), Dose: 0, 0.16, 0.83 MG IN BEESWAX/TRIOCTANOIN (STUDY DURATION: LIFETIME), Tumor Site: Type of Lesion: LUNG: EPIDERMOID CARCINOMA) “active; positive”.

As to `c1ccc2c(c1)ccc1cc3ccc4c(c3nc12)[C@@H]1O[C@@H]1CC4`, the carcinogen call (Species: MOUSE, Strain/Sex: CD-1/FEMALE, Route: INTRAPERITONEAL, Dose: 0, 28 NMOL (TOTAL DOSE) ADMINISTERED AS 1/7 OF DOSE WITHIN 24 HR AFTER BIRTH, 2/7 OF DOSE AT 8 D OLD, 4/7 OF DOSE AT 15) is “inactive; negative” and the carcinogen call (Species: MOUSE, Strain/Sex: CD-1/MALE, Route: INTRAPERITONEAL, Dose: 0, 28 NMOL (TOTAL DOSE) ADMINISTERED AS 1/7 OF DOSE WITHIN 24 HR AFTER BIRTH, 2/7 OF DOSE AT 8 D OLD, 4/7 OF DOSE AT 15) was “inactive; negative”.

With `CC(=O)Nc1ccc(-c2ccc(N(O)C(C)=O)cc2)cc1`, the carcinogen call (Species: RAT, Strain/Sex: STRAIN-CD/FEMALE, Route: INTRAPERITONEAL, Dose: 0, 10, 30 UMOL/KG IN TRIOCTANOIN 2/WK FOR 4 WK (TOTAL DOSES: 13.2, 40.0 UMOL) (STUDY DURATION: 46 WK), Dose: 0, 10, 30 UMOL/KG IN TRIOCTANOIN 2/WK FOR 4 WK (TOTAL DOSES: 13.2, 40.0 UMOL) (STUDY DURATION: 46 WK), Tumor Site: Type of Lesion: MAMMARY GLAND: FIBROADENOMA, ADENOCARCINOMA, EAR (ZYMBAL GLAND): ADENOMA OR CARCINOMA) is “active; positive”.

Regarding `CNCCC(Oc1ccc(C(F)(F)F)cc1)c1ccccc1` (stereo unspecified), the carcinogen call reads like this: (Species: MOUSE, Strain/Sex: B6C3F1/FEMALE, Route: ORAL, Dose: 0, 0.001, 0.004, 0.01% IN DIET FOR 24 MO (STUDY DURATION: 24 MO), Dose: 0, 0.001, 0.004, 0.01% IN DIET FOR 24 MO (STUDY DURATION: 24 MO)) “inactive; negative”; (Species: MOUSE, Strain/Sex: B6C3F1/MALE, Route: ORAL, Dose: 0, 0.001, 0.004, 0.01% IN DIET FOR 24 MO (STUDY DURATION: 24 MO), Dose: 0, 0.001, 0.004, 0.01% IN DIET FOR 24 MO (STUDY DURATION: 24 MO)) “inactive; negative”; (Species: RAT, Strain/Sex: F344/FEMALE, Route: ORAL, Dose: 0, 0.001, 0.0045, 0.02% IN DIET FOR 24 MO (STUDY DURATION: 24 MO), Dose: 0, 0.001, 0.0045, 0.02% IN DIET FOR 24 MO (STUDY DURATION: 24 MO)) “inactive; negative”; (Species: RAT, Strain/Sex: F344/MALE, Route: ORAL, Dose: 0, 0.001, 0.0045, 0.02% IN DIET FOR 24 MO (STUDY DURATION: 24 MO), Dose: 0, 0.001, 0.0045, 0.02% IN DIET FOR 24 MO (STUDY DURATION: 24 MO)) “inactive; negative”.

(Values after PubChem BioAssay AID1259411 (Chemical Carcinogenesis Research Information System (CCRIS), 2018).)
